Laboratory results reported in patent US12428455B2, “Dominant negative CEBPB and CEBPD proteins and methods of use for decreasing viability of neoplastic cells” (The Trustees of Columbia University in the City of New York, priority 2018, dated 2025).
No end group written: not given here.

Experiments:
[1] = system: HIEC-6 non-cancer human intestinal epithelial cells; experiment: Cell number after peptide treatment, HIEC-6; format: cell-based; settings: 6 days, 0 μM to 50 μM; stock without BSA
Experimental: Replicate cultures of HIEC-6 non-cancer human intestinal epithelial cells, MCF10A non-cancer human breast epithelial cells, or normal human astrocytes were exposed to CP-DN-CEBPB or CP-DN-CEBPD, for 6 days at doses of 0 μM to 50 μM. […] Stock solutions of the peptides were prepared in buffer without added bovine serum albumin (BSA).

[2] = system: HIEC-6 non-cancer cell lines; experiment: PI-Annexin staining and flow cytometry, HIEC-6; format: cell-based, human; settings: 20 μM, 3 days
Experimental: MDA-MB-231, MCF7, HCT116 and T98G cancer cell lines and HIEC-6 non-cancer cell lines were treated for 3 days with 20 μM CP-dn-CEBPB and CP-dn-CEBPD peptides from stock solutions prepared without additives, followed by PI-Annexin staining and flow cytometry. Numbers in upper and lower quadrants indicate % of cells in early (lower) or late (upper) apoptotic phase.

[3] = system: MDA-MB-231 cells; experiment: Combination with paclitaxel, cell number, MDA-MB-231; format: cell-based; settings: 1 nM or 5 nM paclitaxel and 3, 10 or 20 μM peptide, 6 days
Experimental: (§1) Replicate cultures of T98G, MDA-MB 231, and MCF7 cells were treated with 1 nM or 5 nM paclitaxel and 3 μM, 10 μM, or 20 μM CP-dn-CEBPB and CP-dn-CEBPD peptides, maintained for 6 days, and then assessed for cell number. The bar graphs of FIGS. 26A (T98G, CP-dn-CEBPB), 26C (T98G, CP-dn-CEBPBD, 26E (MDA-MB-231, CP-dn-CEBPBD), 26G (MDA-MB-231, CP-dn-CEBPD), 26I (MCF7, CP-dn-CEBPBB), and 26K (MCF7, CP-dn-CEBPBD) show relative cell numbers for each condition as compared to untreated controls. The line graphs of FIGS. 26B (T98G, CP-dn-CEBPB), 26D (T98G, CP-dn-CEBPBD), 26F (MDA-MB-231, CP-dn-CEBPB), 26H (MDA-MB-231, CP-dn-CEBPD), 26J (MCF7, CP-dn-CEBPB), and 26L (MCF7 CP-dn-CEBPBD) show the response as normalized in each case so that 100 represents the relative number of surviving cells that received the indicated level of paclitaxel, but no peptide treatment. Calculated combination indices (CI) were as follows: MCF7: CI=0.41±0.04 for CP-dn-CEBPB; 0.44±0.04 for CP-dn-CEBPD; MDA-MB-231: 0.74±0.03 for CP-dn-CEBPB; 0.74±0.05 for CP-dn-CEBPD; T98G: CI=0.84±0.06 for CP-dn-CEBPB and 0.75±0.07 for CP-dn-CEBPD.

[4] = system: T98G, MDA-MB 231, and MCF7 cells; experiment: Combination with paclitaxel, overall conclusion; format: cell-based; settings: co-treatment, cell number or colony number
Experimental: as §1
Replicate cultures of MDA-MB-231 cells in soft agar were treated with 0.1 nM or 0.5 nM 50 nM or 500 nM CP-dn-CEBPB and CP-dn-CEBPD peptides, maintained for 12 days, and then assessed for colony number. […]

[5] = system: BCL2, MCL1 and survivin proteins; experiment: Western immunoblotting for pro-survival proteins; format: cell-based; settings: 20 μM, 3 days; T98G, HCT116, MDA-MB-231 and MCF7 cell lines
Experimental: T98G, HCT116, MDA-MB-231, and MCF7 cell lines were exposed to 0 or 20 μM CP-dn-CEBPB or CP-dn-CEBPD for 3 days and then assessed by Western immunoblotting for levels of BCL2, MCL1 and survivin proteins with actin as loading control (FIG. 34A). Remaining panels show amounts of surviving (FIG. 34B), BCL2 (FIG. 34C) and MCL1 (FIG. 34D) were quantified relative to actin in multiple experiments.

[6] = system: BMF; experiment: Apoptotic nuclei after BMF knockdown siRNA and CP-dn-CEBPD; format: cell-based; settings: siRNA 2 days, then 20 μM peptide 2 days; T98G, MCF7, A375 and HCT116 cells
Experimental: T98G, MCF7, A375, and HCT116 cells were treated with one of two BMF knockdown siRNAs or control siRNA for 2 days, then treated with or without 20 μM CP-dn-CEBPD for 2 days. Cultures were assessed for % of apoptotic nuclei (n=6 random fields) (FIG. 36A, T98G; FIG. 36B, MCF7; FIG. 38C, A375; FIG. 36D, HCT116).

[7] = system: B16-F10 cells; experiment: B16-F10 subcutaneous tumors; format: in vivo, C56BL/6 mice; settings: 20 or 50 mg/kg intraperitoneally
Experimental: B16-F10 cells were subcutaneously implanted in the flanks of C56BL/6 mice. After the tumors were established, the mice were treated intraperitoneally with 20 or 50 mg/kg of CP-dn-CEBPD or vehicle as indicated in the schema shown in FIG. 38A. Animal weight was monitored (FIG. 38B). […] FIG. 38D compares calculated individual and mean tumor volumes for each group of animals on day 12.

[8] = system: HCT116 cells; experiment: HCT116 subcutaneous tumors; format: in vivo, NCR nude mice; settings: 20 mg/kg intraperitoneally
Experimental: HCT116 cells were subcutaneously implanted in the flanks of NCR nude mice. After tumors formed, the animals were treated intraperitoneally with 20 mg/kg of CP-dn-CEBPD or vehicle as indicated in the schema shown FIG. 40A. Animal weight was monitored (FIG. 40). […] FIG. 40D compares calculated individual and mean tumor volumes for vehicle and CP-dn-CEBPD treated animals on day 11.

[9] = system: A375 xenograft tumors; experiment: TUNEL staining of A375 xenograft tumors; format: in vivo, mice; settings: 20 mg/kg, retreated 2 days later, tumors harvested after additional 2 days
Experimental: Subcutaneous A375 xenograft tumors were established in mice. When the tumors reached approximately 300 mm^3, randomly chosen animals were treated with vehicle or 20 mg/kg of CP-dn-CEBPD. The animals were retreated 2 days later and, after an additional 2 days, the animals were sacrificed, and the tumors harvested for histology and TUNEL staining to detect apoptosis. Results are presented in FIG. 42A (vehicle) and FIG. 42B (CP-dn-CEBPD).

Row | Sequence | number of HIEC-6 cells [1] | apoptotic death (early or late apoptotic phase) [2] | combination index (CI) with paclitaxel [3] | kind of combined effect with paclitaxel [4] | levels of BCL2, MCL1 and survivin proteins relative to actin [5] | % of apoptotic nuclei with BMF knockdown siRNAs or control siRNA [6] | side effects (animal weight monitored) [7] | tumor growth (calculated tumor volumes) ([7]; to day 12-13) | side effects (animal weight monitored) [8] | animal survival ([8]; endpoint morbid behavior or tumor >1000 mm^3) | tumor growth (calculated tumor volumes) ([8]; to day 11) | apoptosis of tumor cells (TUNEL staining) [9]
1 | RQIKIWFQNRRMKWKKLETQHKVLELTAENERLQKKVEQLSRELSTLRNLFKQL [CP-DN-CEBPB] | did not cause a dose-dependent decrease | not in the control non-caner cell line | 0.74±0.03 | synergistic effect | surpress expression of pro-survival proteins | – | – | – | – | – | – | –
2 | RQIKIWFQNRRMKWKKLVELSAENEKLHQRVEQLTRDLAGLRQFFK [CP-DN-CEBPD] | did not cause a dose-dependent decrease | not in the control non-caner cell line | 0.74±0.05 | synergistic effect | surpress expression of pro-survival proteins | kills cancer cells by upregulating pro-apoptotic BMF | no apparent side effects | suppressed tumor growth | no apparent side effects | increased animal survival | suppressed tumor growth | causes apoptosis of tumor cells in vivo
